Assay results as given in article PMC7907166, “AOA-2 Derivatives as Outer Membrane Protein A Inhibitors for Treatment of Gram-Negative Bacilli Infections” (Frontiers in Microbiology, 2021).
Positions of bridges follow the written chain, without caps; N, C: chain ends. Non-standard residues stand in square brackets, D forms with d. Residues, ends and D or L forms follow the SMILES beside them. *: point of attachment. X1 = CC[C@H](C)CCCCC(=O)*; Dab = NCC[C@H](N)C(=O)O

Columns and labels:
Type in all cases: cell-based
A. baumannii ATCC 17978 [1] = details: colistin alone; microdilution, two independent experiments
Procedure: The minimal inhibitory concentration (MIC) of colistin in absence and presence of RW01 or RW06 at […] for A. baumannii ATCC 17978 strain was determined by microdilution assay in two independent experiments as previously reported ([Parra-Millán et al., 2018]).

[2] = system: OmpA-deficient mutant A. baumannii, JPAB01; details: colistin alone, microdilution
E. coli ATCC 25922 = test: Bacterial adhesion assay to A549 cells; details: for adherence of E. coli to A549 cells reduced to: bacteria pre-incubated with peptide 250 μg/mL 30 min, MOI 500, 2 h, CFU count
Procedure: (§1) The human pneumocyte cell line type II A549, derived from a human lung carcinoma, obtained from the American Type Culture Collection was used and cultured in DMEM medium (Invitrogen, Spain) supplemented with 10% of heat-inactivated fetal bovine serum, 50 μg/mL vancomycin (Laboratorios Normon, Spain), 20 μg/mL gentamicin (Normon Laboratories, Spain), 0.25 μg/mL amphotericin B mL (Invitrogen, Spain) and 1% HEPES (Invitrogen, Spain) in a humidified incubator, 5% CO2 at 37°C. Routine passage of A549 cells was performed every 3–4 days. Cells were seeded 24 h in 96-well plates (Sarstedt, Germany) for the cell viability assay, and in 24-well plates (Sarstedt, Germany) for the bacterial adhesion assays.
(§2) A. baumannii ATCC 17978, P. aeruginosa PAO1 and E. coli ATCC 25922 strains were incubated with AOA-2 (31.25, 62.5, 125, and 250 μg/mL, 30 min), AOA-2 derivatives RW01, RW02, RW03, RW06, RW07, RW08, RW09, RW10, RW11, and RW13 (250 μg/mL, 30 min), or AOA-2 derivatives RW01, RW02, RW03, RW06 (31.25, 62.5, and 125 μg/mL, 30 min), and added at 10^8 CFU/mL, corresponding to a multiplicity of infection (MOI) of 500, to the A549 cells for 2 h at 5% CO2 and 37°C. Subsequently, infected A549 cells were washed five times with prewarmed PBS 1X and lysed with 0.5% Triton X-100. Serial dilutions of these lysates were made and plated on blood agar plates (Blood-Agar Columbia, Becton Dickinson Microbiology Systems, United States) and incubated at 37°C for 24 h for colony counting and then determination of CFU/mL that attached to A549 cells.

P. aeruginosa PAO1 = test: Bacterial adhesion assay to A549 cells; details: for adherence of P. aeruginosa to A549 cells reduced to: bacteria pre-incubated with peptide 250 μg/mL 30 min, MOI 500, 2 h, CFU count; for adherence of PAO1 strain to A549 cells compared with AOA-2: peptide 125, 62.5 and 31.25 μg/mL, some statistical differences, Figure 2B; for adherence of PAO1 strain to A549 cells (in words): peptide 250 μg/mL, 30 min, Figure 2A
Procedure: as §1, §2

A. baumannii ATCC 17978 [3] = test: Bacterial adhesion assay to A549 cells; details: for adherence of A. baumannii to A549 cells reduced to: bacteria pre-incubated with peptide 250 μg/mL 30 min, MOI 500, 2 h, CFU count
Procedure: as §1, §2

[4] = peptide 250 μg/mL, 30 min, Figure 2A

Compound	adherence of E. coli to A549 cells reduced to (E. coli ATCC 25922) [%]	adherence of P. aeruginosa to A549 cells reduced to (P. aeruginosa PAO1) [%]	adherence of PAO1 strain to A549 cells compared with AOA-2 (P. aeruginosa PAO1)	adherence of A. baumannii to A549 cells reduced to (A. baumannii ATCC 17978 [3]) [%]	adherence of PAO1 strain to A549 cells (in words) (P. aeruginosa PAO1)	other results
CC[C@H](C)CCCCC(=O)N[C@@H](CCN)C(=O)N[C@H](C(=O)N[C@@H](CCN)C(=O)N[C@H]1CCNC(=O)[C@H]([C@@H](C)O)NC(=O)[C@H](CCN)NC(=O)[C@H](CCN)NC(=O)[C@H](CC(C)C)NC(=O)[C@@H](CC(C)C)NC(=O)[C@H](CCN)NC1=O)[C@@H](C)O [colistin, reference compound] (X1-[Dab]T[Dab][Dab][Dab][dL]L[Dab][Dab]T; lactam 4-C (inferred); N-terminus assumed)						MIC of colistin (A. baumannii ATCC 17978 [1]): 0.5 µg/mL; MIC of colistin [2]: 0.0625 µg/mL
&2Nal-D-Pro-Arg-2Nal-D-Pro-Arg& (head to tail) [RW03, AOA-2 derivative with tryptophan analog 2Nal]	29.62	20.71	reduced better	55.47		adherence of ATCC 25922 to host cells compared with AOA-2 (E. coli ATCC 25922; peptide 125, 62.5 and 31.25 μg/mL, Figure 2B): reduced with some statistical differences
&2Nal-D-Pro-Arg-3Pal-D-Pro-Arg& (head to tail) [RW11]					reduced	
&3Pal-D-Pro-Arg-3Pal-D-Pro-Arg& (head to tail) [RW02, AOA-2 derivative with tryptophan analog 3Pal]	61.11	42.51	reduced better	43.58		
&3Pal-D-Pro-Arg-Trp-D-Pro-Tyr& (head to tail) [RW13]					reduced	adherence of ATCC 25922 strain to A549 cells (in words) (E. coli ATCC 25922; [4]): reduced
&Arg-D-Pro-Trp-Trp-D-Pro-Arg& (head to tail) [RW08]					reduced	adherence of ATCC 17978 strain to A549 cells (in words) (A. baumannii ATCC 17978 [3]; [4]): reduced
